From patent US20240210412A1, “SULFONYL-TRIAZOLE COMPOUNDS USEFUL AS LIGANDS AND INHIBITORS OF PROSTAGLANDIN REDUCTASE 2” (University of Virginia Patent Foundation, priority 2021, published 2024)

Assays:
Assay in all cases: SILAC LC-MS ABPP
Assay type in all cases: cell-based
Details in all cases: 25 μM 2 h, live DM93 cells
P60900 = target: T1, P60900 (Homo sapiens, UniProt P60900)
T1 construct: endogenous in cells; host or cells: DM93 cells (SILAC)
Outline: (§1)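 Readout is SILAC heavy/light LC-MS/MS quantification of HHS-475-labelled tyrosine peptides, reflecting blockade of probe labelling by ligand. DM93 cells were pretreated with 25 μM SuTEx ligand (heavy) or DMSO (light) for 2 h at 37 °C, then probed with 100 μM HHS-475 for 2 h.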

P68104 = target: T2, P68104 (Homo sapiens, UniProt P68104)
T2 construct: performing SuTEx compound screening directly in cells; endogenous in cells; host or cells: DM93 cells (SILAC)
Outline: as §1

Q92974 = target: T3, Q92974 (Homo sapiens, UniProt Q92974)
T3 construct: endogenous in cells; host or cells: DM93 cells (SILAC), live-cell treatment
T3 sequence (Q92974 whole entry): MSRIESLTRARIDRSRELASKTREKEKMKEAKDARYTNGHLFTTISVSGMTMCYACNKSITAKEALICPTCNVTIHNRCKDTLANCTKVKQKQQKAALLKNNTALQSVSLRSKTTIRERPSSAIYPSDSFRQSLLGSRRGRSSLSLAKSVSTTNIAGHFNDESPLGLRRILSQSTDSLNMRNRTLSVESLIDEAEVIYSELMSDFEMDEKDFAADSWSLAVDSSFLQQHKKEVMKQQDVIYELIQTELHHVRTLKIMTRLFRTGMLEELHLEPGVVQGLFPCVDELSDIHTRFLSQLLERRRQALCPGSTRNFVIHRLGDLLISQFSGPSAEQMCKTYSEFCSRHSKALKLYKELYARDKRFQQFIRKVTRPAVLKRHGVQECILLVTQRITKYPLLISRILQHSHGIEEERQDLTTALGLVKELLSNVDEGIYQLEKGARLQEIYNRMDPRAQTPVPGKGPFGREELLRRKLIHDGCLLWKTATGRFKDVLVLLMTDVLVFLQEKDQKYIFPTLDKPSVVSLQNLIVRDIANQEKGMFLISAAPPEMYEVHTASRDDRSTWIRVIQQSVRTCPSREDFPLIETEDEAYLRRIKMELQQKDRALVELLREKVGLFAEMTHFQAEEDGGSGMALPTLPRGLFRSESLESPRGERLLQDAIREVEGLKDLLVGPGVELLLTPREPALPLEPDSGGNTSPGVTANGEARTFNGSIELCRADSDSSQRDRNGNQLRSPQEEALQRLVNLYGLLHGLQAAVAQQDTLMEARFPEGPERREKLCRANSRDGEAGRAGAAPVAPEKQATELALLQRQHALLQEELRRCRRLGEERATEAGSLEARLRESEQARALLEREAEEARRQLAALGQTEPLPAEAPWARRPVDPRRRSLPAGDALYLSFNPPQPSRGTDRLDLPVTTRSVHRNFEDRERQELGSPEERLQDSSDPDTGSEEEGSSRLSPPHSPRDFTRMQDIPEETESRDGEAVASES
Outline: as §1

Q15293 = target: T4, Q15293 (Homo sapiens, UniProt Q15293)
T4 construct: performing SuTEx compound screening directly in cells; endogenous in cells; host or cells: DM93 cells (SILAC), soluble fraction
Outline: as §1

P63241 = target: T5, P63241 (Homo sapiens, UniProt P63241)
T5 construct: performing SuTEx compound screening directly in cells; endogenous in cells; host or cells: DM93 cells (SILAC)
T5 sequence (P63241 whole entry): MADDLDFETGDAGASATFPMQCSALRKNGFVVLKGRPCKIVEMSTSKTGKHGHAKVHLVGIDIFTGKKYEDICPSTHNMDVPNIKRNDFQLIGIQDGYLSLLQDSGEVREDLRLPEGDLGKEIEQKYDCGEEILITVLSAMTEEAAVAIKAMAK
Outline: as §1

O60506 = target: T6, O60506 (Homo sapiens, UniProt O60506)
T6 construct: endogenous in cells; host or cells: DM93
T6 sequence (O60506 whole entry): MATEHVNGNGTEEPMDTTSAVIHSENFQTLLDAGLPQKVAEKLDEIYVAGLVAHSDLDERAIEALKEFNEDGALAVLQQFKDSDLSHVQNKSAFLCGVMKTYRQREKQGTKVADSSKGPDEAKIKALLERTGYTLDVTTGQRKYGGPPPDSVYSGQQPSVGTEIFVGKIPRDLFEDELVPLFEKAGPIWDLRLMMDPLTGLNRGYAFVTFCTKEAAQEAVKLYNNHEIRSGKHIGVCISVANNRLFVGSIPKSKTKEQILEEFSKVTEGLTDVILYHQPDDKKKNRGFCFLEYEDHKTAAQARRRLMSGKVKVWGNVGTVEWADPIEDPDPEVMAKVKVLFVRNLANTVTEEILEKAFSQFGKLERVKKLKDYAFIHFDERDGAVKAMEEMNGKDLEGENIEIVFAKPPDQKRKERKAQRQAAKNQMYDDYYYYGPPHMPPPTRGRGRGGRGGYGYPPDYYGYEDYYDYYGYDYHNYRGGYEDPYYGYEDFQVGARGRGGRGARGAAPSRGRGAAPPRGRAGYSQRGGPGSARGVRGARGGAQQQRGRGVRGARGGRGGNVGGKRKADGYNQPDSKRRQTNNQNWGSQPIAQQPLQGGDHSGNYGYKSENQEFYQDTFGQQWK
Outline: as §1

P78527 = target: T7, P78527 (Homo sapiens, UniProt P78527)
T7 construct: performing SuTEx compound screening directly in cells; endogenous in cells; host or cells: DM93 cells (SILAC)
Outline: as §1

P20618 = target: T8, P20618 (Homo sapiens, UniProt P20618)
T8 construct: endogenous in cells; host or cells: DM93 (SILAC)
Outline: as §1

O15318 = target: T9, O15318 (Homo sapiens, UniProt O15318)
T9 construct: endogenous in cells; host or cells: DM93
T9 sequence (O15318 whole entry): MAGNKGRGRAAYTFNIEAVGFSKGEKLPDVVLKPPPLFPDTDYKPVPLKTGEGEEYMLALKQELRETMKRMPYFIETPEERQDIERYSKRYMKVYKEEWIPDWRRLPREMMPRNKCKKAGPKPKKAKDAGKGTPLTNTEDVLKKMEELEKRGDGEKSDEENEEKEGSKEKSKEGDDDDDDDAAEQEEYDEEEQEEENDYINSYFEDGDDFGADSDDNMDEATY
Outline: as §1

P30086 = target: T10, P30086 (Homo sapiens, UniProt P30086)
T10 construct: endogenous in cells; host or cells: DM93 (SILAC)
T10 sequence (P30086 whole entry): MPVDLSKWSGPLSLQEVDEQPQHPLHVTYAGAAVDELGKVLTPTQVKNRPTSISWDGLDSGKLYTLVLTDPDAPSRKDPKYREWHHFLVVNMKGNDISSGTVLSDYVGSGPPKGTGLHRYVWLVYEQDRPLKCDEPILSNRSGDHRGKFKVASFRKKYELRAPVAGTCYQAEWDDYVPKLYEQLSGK
Outline: as §1

P50851 = target: T11, P50851 (Homo sapiens, UniProt P50851)
T11 construct: Probe-modified proteins from the soluble fraction were conjugated to a desthiobiotin-azide tag; endogenous in cells; host or cells: DM93 cells (SILAC)
Outline: as §1

P51003 = target: T12, P51003 (Homo sapiens, UniProt P51003)
T12 construct: Probe-modified proteins from the soluble fraction were conjugated to a desthiobiotin-azide tag; endogenous in cells; host or cells: DM93 cells (SILAC)
Outline: as §1

P55084 = target: T13, P55084 (Homo sapiens, UniProt P55084)
T13 construct: endogenous in cells; host or cells: DM93 cells (SILAC)
T13 sequence (P55084 34-474): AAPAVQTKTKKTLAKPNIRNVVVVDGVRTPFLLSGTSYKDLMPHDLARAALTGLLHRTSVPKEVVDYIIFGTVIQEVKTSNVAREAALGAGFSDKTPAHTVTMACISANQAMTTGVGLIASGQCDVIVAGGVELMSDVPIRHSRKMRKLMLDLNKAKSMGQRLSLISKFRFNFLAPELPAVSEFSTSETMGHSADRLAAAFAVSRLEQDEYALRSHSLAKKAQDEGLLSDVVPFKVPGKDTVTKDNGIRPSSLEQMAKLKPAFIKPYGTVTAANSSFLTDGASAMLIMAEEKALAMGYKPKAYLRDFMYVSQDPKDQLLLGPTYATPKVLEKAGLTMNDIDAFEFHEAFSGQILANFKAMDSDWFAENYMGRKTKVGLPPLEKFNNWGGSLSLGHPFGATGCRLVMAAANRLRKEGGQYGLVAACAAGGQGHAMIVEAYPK
T13 sequence (P40939 37-763 partner): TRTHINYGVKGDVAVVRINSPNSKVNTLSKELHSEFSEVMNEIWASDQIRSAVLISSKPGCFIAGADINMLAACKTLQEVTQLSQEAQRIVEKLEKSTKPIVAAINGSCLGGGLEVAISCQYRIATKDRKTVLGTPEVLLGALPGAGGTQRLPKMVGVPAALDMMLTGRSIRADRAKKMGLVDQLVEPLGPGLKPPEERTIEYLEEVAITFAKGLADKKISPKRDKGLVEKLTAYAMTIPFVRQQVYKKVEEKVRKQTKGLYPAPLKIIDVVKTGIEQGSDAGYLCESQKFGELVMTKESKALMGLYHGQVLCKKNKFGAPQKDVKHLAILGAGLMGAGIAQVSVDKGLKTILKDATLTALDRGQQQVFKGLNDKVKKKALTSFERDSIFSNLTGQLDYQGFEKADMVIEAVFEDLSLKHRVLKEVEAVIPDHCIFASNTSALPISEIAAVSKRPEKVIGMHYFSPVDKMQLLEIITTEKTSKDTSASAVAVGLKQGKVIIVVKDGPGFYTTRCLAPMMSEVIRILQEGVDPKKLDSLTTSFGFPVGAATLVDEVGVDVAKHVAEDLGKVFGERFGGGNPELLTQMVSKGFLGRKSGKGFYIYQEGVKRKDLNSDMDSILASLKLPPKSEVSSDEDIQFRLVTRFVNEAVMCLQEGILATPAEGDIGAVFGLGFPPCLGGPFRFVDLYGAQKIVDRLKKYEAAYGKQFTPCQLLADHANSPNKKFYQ
Outline: as §1

Q13011 = target: T14, Q13011 (Homo sapiens, UniProt Q13011)
T14 construct: performing SuTEx compound screening directly in cells; endogenous in cells; host or cells: DM93 cells (SILAC)
T14 sequence (Q13011 34-328): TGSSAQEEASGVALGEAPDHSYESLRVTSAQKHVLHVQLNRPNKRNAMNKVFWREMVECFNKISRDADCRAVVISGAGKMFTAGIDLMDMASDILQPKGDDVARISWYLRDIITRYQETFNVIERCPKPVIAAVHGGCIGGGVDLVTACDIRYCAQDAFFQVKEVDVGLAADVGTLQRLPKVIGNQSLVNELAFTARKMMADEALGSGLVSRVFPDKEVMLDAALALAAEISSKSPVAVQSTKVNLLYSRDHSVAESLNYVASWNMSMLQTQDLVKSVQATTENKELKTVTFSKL
Outline: as §1

P09960 = target: T15, P09960 (Homo sapiens, UniProt P09960)
T15 construct: endogenous in cells; host or cells: DM93 cells (SILAC)
T15 sequence (P09960 whole entry): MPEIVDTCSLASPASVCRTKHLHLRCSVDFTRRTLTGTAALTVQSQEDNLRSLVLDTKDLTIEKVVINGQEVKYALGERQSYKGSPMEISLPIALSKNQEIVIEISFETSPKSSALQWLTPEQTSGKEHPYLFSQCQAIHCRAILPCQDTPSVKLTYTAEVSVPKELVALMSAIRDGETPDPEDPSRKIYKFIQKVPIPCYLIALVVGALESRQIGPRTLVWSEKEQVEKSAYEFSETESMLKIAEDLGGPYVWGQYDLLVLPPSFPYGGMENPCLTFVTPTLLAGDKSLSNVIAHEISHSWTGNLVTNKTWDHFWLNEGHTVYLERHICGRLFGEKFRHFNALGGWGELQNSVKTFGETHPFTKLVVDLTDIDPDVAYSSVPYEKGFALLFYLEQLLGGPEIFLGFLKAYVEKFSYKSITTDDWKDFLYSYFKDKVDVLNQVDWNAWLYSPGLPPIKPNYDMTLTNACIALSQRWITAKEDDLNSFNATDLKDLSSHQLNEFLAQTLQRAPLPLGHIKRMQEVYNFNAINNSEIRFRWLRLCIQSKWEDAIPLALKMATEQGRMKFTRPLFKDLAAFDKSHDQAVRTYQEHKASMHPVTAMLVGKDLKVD
Outline: as §1

P12081 = target: T16, P12081 (Homo sapiens, UniProt P12081)
T16 construct: endogenous in cells; host or cells: DM93 cells (SILAC)
T16 sequence (P12081 whole entry): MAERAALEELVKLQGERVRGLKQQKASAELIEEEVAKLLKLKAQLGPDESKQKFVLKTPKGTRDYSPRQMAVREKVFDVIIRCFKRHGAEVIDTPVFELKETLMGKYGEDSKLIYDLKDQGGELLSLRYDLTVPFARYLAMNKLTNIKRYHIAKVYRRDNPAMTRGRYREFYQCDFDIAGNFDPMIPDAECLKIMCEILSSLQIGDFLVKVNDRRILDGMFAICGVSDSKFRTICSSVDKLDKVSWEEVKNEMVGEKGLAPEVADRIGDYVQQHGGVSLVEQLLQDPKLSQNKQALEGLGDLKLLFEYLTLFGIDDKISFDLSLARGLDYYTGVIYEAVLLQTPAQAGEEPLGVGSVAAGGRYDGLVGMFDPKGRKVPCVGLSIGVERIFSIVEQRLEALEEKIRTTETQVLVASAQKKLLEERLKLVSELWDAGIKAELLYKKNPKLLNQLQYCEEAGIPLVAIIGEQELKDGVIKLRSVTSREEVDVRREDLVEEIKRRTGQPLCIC
Outline: as §1

Q9H223 = target: T17, Q9H223 (Homo sapiens, UniProt Q9H223)
T17 construct: endogenous in cells; host or cells: DM93 cells (SILAC), treated live; soluble proteome analysed
Outline: as §1

O=C(NC1CC1)c1ccc(S(=O)(=O)n2cncn2)cc1 [HHS-0101, 4-((1H-1,2,4-triazol-1-yl)sulfonyl)-N-cyclopropylbenzamide]
liganded tyrosine site 103 (P60900): HHS0101.Y|HHS0201.Y|HHS0401.Y (tyrosine sites that showed >80% reductions (SR >5) in probe labeling in cells treated with compounds (liganded sites)) | liganded tyrosine site 183 (P68104): HHS0101.Y (tyrosine sites that showed >80% reductions (SR >5) in probe labeling in cells treated with compounds (liganded sites)) | liganded tyrosine site 894 (Q92974): HHS0101.Y|HHS0401.Y (tyrosine sites that showed >80% reductions (SR >5) in probe labeling in cells treated with compounds (liganded sites)) | liganded tyrosine site 320 (Q15293): HHS0101.Y (tyrosine sites that showed >80% reductions (SR >5) in probe labeling in cells treated with compounds (liganded sites)) | liganded tyrosine site 127 (P63241): HHS0101.Y|HHS0201.Y|HHS0701.Y (tyrosine sites that showed >80% reductions (SR >5) in probe labeling in cells treated with compounds (liganded sites))

O=C(NCC1CC1)c1ccc(S(=O)(=O)n2cncn2)cc1 [HHS-0201, 4-((1H-1,2,4-triazol-1-yl)sulfonyl)-N-(cyclopropylmethyl)benzamide]
liganded tyrosine site 570 (O60506): HHS0201.Y|HHS0301.Y|HHS0401.Y|HHS0701.Y (tyrosine sites that showed >80% reductions (SR >5) in probe labeling in cells treated with compounds (liganded sites))

O=C(NC1CCCCC1)c1ccc(S(=O)(=O)n2cncn2)cc1 [HHS-0301, 4-((1H-1,2,4-triazol-1-yl)sulfonyl)-N-cyclohexylbenzamide]
liganded tyrosine site 701 (P78527): HHS0301.Y (tyrosine sites that showed >80% reductions (SR >5) in probe labeling in cells treated with compounds (liganded sites)) | liganded tyrosine site 135 (P20618): HHS0301.Y (tyrosine sites that showed >80% reductions (SR >5) in probe labeling in cells treated with compounds (liganded sites)) | liganded tyrosine site 43 (O15318): HHS0301.Y|HHS0401.Y (tyrosine sites that showed >80% reductions (SR >5) in probe labeling in cells treated with compounds (liganded sites)) | liganded tyrosine site 56 (O15318): HHS0301.Y (tyrosine sites that showed >80% reductions (SR >5) in probe labeling in cells treated with compounds (liganded sites)) | liganded tyrosine site 106 (P30086): HHS0301.Y (tyrosine sites that showed >80% reductions (SR >5) in probe labeling in cells treated with compounds (liganded sites))

O=C(NCc1ccccc1)c1ccc(S(=O)(=O)n2cncn2)cc1 [HHS-0401, 4-((1H-1,2,4-triazol-1-yl)sulfonyl)-N-benzylbenzamide]
liganded tyrosine site 2656 (P50851): HHS0401.Y (tyrosine sites that showed >80% reductions (SR >5) in probe labeling in cells treated with compounds (liganded sites)) | liganded tyrosine site 327 (P51003): HHS0401.Y|HHS0701.Y (tyrosine sites that showed >80% reductions (SR >5) in probe labeling in cells treated with compounds (liganded sites)) | liganded tyrosine site 402 (P55084): HHS0401.Y (tyrosine sites that showed >80% reductions (SR >5) in probe labeling in cells treated with compounds (liganded sites))

O=C(c1ccc(S(=O)(=O)n2cncn2)cc1)N1CCC(c2ccccc2)CC1 [HHS-0701, (4-((1H-1,2,4-triazol-1-yl)sulfonyl)phenyl)(4-phenylpiperidin-1-yl)methanone]
liganded tyrosine site 149 (Q13011): HHS0701.Y (tyrosine sites that showed >80% reductions (SR >5) in probe labeling in cells treated with compounds (liganded sites)) | liganded tyrosine site 379 (P09960): HHS0701.Y (tyrosine sites that showed >80% reductions (SR >5) in probe labeling in cells treated with compounds (liganded sites)) | liganded tyrosine site 384 (P09960): HHS0701.Y (tyrosine sites that showed >80% reductions (SR >5) in probe labeling in cells treated with compounds (liganded sites)) | liganded tyrosine site 168 (P12081): HHS0701.Y (tyrosine sites that showed >80% reductions (SR >5) in probe labeling in cells treated with compounds (liganded sites)) | liganded tyrosine site 172 (P12081): HHS0701.Y (tyrosine sites that showed >80% reductions (SR >5) in probe labeling in cells treated with compounds (liganded sites)) | liganded tyrosine site 70 (Q9H223): HHS0701.Y (tyrosine sites that showed >80% reductions (SR >5) in probe labeling in cells treated with compounds (liganded sites))
